Measurements from patent EP0349941A2, “Morpholino derivatives of rhodomycins, process for their preparation and their use” (BEHRINGWERKE Aktiengesellschaft, priority 1988, dated 1990).
In brackets after ≈: the same amount, converted by molar mass. Like-named read-outs stand apart in the source and are kept apart here.

Tests used:
[1] = test system: L1210 Leukämiezellen; test: Cytotoxicity against L1210 leukaemia cells (stem cell assay, colony formation in soft agar); format: cell-based, Maus; conditions: colonies counted after 5-7 days; for IC50: Mus musculus, L1210
Experimental: Der Test wurde entsprechend der von Hamburger und Salmon beschriebenen Methodik mit den unten beschriebenen Modifikationen durchgeführt.
Konditioniertes Medium wurde durch McCoy 5A Medium ersetzt. Als Folge der hohen Klonierungsrate der L1210 Leukämiezellen in Soft Agar wurde die Anzahl an Tumorzellen pro Platte auf 5 x 10² reduziert.
Die Zellen wurden mit unterschiedlichen Konzentrationen der Testsubstanz für 1 h bei 37° C inkubiert. Anschlie-ßend wurden die Zellen zweimal mit McCoy 5A Medium gewaschen und anschließend in einem Zwei-Schichten-Agar System als obere Schicht entsprechend der Methode von Hamburger und Salmon ausplattiert.
Zusätzliche Parallelexperimente wurden unter Verwendung einer kontinuierlichen Inkubationszeit durchgeführt, wobei unterschiedliche Konzentrationen der Testsubstanz der oberen Agarschicht vor Ausplattieren der Zellen zugemischt wurden.
Die Platten wurden in einem Brutschrank mit 5 % CO₂, 20 % O₂ und 95 % relativer Luftfeuchte für 5-7 Tage inkubiert. Nach dieser Zeit wurden Kolonien mit einem Durchmesser von 60 µm mit Hilfe eines Invertoskopes gezählt.
Die Ergebnisse wurden angegeben als prozentualer Anteil der Kolonien in behandelten versus unbehandelten Gruppen. Der Variationskoeffizient bei wiederholten Experimenten war kleiner als 15 %.
Die an den getesteten Verbindungen erhaltenen Resultate sind in der Tabelle 1 enthalten. Aus der Dosis-Wirkungskurve wurde die IC₅₀ für die kontinuierliche und einstündige Inkubation bestimmt (Tab. 1).

[2] = test system: HT 29; test: Proliferation test (MTT reduction), HT 29; format: cell-based, menschlichen; conditions: HT 29 cells, 72 h incubation; for IC50: Homo sapiens, read-out: IC₅₀ MTT-ASSAY HT 29
Experimental: (§1) L1210, A 549 oder HT 29 in exponentieller Wachstumsphase wurden in einer Zelldichte von 5 x 10³ Zellen/ml in RPMI 1640 in einer 96 Well Mikrotiterplatte für 72 h mit unterschiedlichen Konzentrationen der Testsubstanz bei 37° C, 5 % CO₂ und 95 % relativer Luftfeuchte inkubiert. Kontrollexperimente erhielten anstelle der Testsubstanz lediglich Wachstumsmedium. Für jede Testsubstanz sowie für die Kontrolle wurden 4fach Bestimmungen angesetzt. Nach 65 h Inkubation wurden 50 µl einer MTT-Lösung (2,5 mg/ml in Phosphat-gepuffertem Kochsalz) zugegeben. In Gegenwart lebender Zellen wurde MTT zu einem dunkelroten unlöslichen Formazanfarbstoff reduziert. Diese Reaktion war nach 7 h (L1210 Zellen) bzw. nach 24 h (A 549, HT 29 Zellen) beendet und das überstehende Medium wird sorgfältig abgesaugt. Der unlösliche Farbstoff wurde durch Zugabe von 100 µl DMSO aufgelöst und die Extinktion der so entstehenden Lösung anschließend für jedes Well in einem Multiscan Photometer 340 CC der Fa. Flow bei einer Wellenlänge von 492 nm vermessen.
(§2) Aus dem Verhältnis der Extinktionen behandelter und unbehandelter Zellen ergab sich eine Dosis-Wirkungskurve, aus der die Konzentration, die gerade 50 % der Zellen (IC₅₀) abtötet, abgelesen werden konnte. Für wiederholte Untersuchungen betrug der Variationskoeffizient weniger als 15 %.

[3] = test system: L1210; test: Proliferation test (MTT reduction), L1210; format: cell-based, Maus; conditions: L1210 cells, 72 h incubation; for IC50: Mus musculus, read-out: IC₅₀ MTT-ASSAY L1210
Experimental: as §1, §2

[4] = test system: A 549; test: Proliferation test (MTT reduction), A 549; format: cell-based, menschlichen; conditions: A 549 cells, 72 h incubation; for IC50: Homo sapiens, A549, read-out: IC₅₀ MTT-ASSAY A 549
Experimental: as §1, §2

[5] = test system: L1210 Leukämie der Maus; test: In vivo efficacy against L1210 leukaemia of the mouse; conditions: L1210 tumour model in vivo
Experimental: Ascitesflüssigkeit wurde unter sterilen Bedingungen DBA2 Mäusen (weiblich, 18 - 20 g) 7 Tage nach Implantation entnommen. Der Ascites wurde dreimal mit PBS gewaschen, gezählt und auf eine Zellzahl von 10⁶ in 0.2 ml PBS eingestellt. 10⁶ Zellen, suspendiert in 0.2 ml PBS, wurden anschlie-ßend DBF1 Mäusen (weiblich, 18 - 20 g) intraperitoneal injiziert. 6 Tiere pro Gruppe wurden für jede Substanzkonzentration bzw. als Kontrolle eingesetzt.
Zur Ermittlung der antitumoralen Wirksamkeit wurden die Tiere am Tag 1 und 5 nach Injektion der Testsubstanz gewogen. Gewichtsverlust von mehr als 20 % am Tag 5 wurde als Indikator einer toxischen Substanzwirkung angesehen.
Am Ende des Experimentes (Tod aller Tiere oder überlebende Tiere am Tag 60) wurde die mittlere Überlebenszeit der Tiere in den jeweiligen Gruppen bestimmt, sofern am Tag 5 des Experimentes mindestens 65 % der Tiere noch gelebt hatten. Die mittlere Überlebenszeit wurde ausschließlich für im Verlaufe des Experimentes sterbende Tiere bestimmt. Langzeitüberlebende (LTS) wurden bei dieser Berechnung nicht berücksichtigt und gesondert aufgeführt.
Aus der mittleren Überlebenszeit (MSTr) der behandelten Gruppen sowie der Kontrollgruppen (MSTc) wurde die antitumorale Wirksamkeit (T/C) für die jeweilige Substanzkonzentration in Prozent der unbehandelten Kontrolle entsprechend der folgenden Formel bestimmt: [formula] […]

[6] = 1 h incubation at 37° C, read-out: IC₅₀ STEM CELL ASSAY 1 h exp. L1210
[7] = continuous incubation, read-out: IC₅₀ STEM CELL ASSAY cont. exp. L1210

Row | Compound | IC50 [1, 6] [µg/mL] | IC50 [1, 7] [µg/mL] | IC50 [2] [µg/mL] | IC50 [3] [µg/mL] | IC50 [4] [µg/mL] | also measured
1 | CC[C@@]1(O)C[C@H](O[C@H]2C[C@H](N3C[C@@H](CO)O[C@@H](n4cnc5c(N)ncnc54)C3)[C@H](O)[C@H](C)O2)c2c(O)c3c(c(O)c2[C@H]1C(=O)OC)C(=O)c1c(O)ccc(O)c1C3=O [XIV] | 0.5 (≈ 0.62 µM) | 1 (≈ 1.24 µM) | – | – | – | –
2 | 7-0-(3′-(3˝- oder 5˝-Cyano-6˝(S)-hydroxymethyl-2˝(S)methoxy-4˝-morpholinyl)-2′,3′,6′-tri-desoxy-alpha-L-lyxohexopyranosyl)-ß-rhodomycinon [XXV] | – | – | – | – | – | IC₅₀ MTT-ASSAY HT 29 [2]: 0.002 µg/mL; IC₅₀ STEM CELL ASSAY 1 h exp. L1210 ([1]; 1 h incubation at 37° C): 0.007 µg/mL; IC₅₀ MTT-ASSAY L1210 [3]: 0.0005 µg/mL; IC₅₀ MTT-ASSAY A 549 [4]: 0.003 µg/mL
3 | CC[C@@]1(O)C[C@H](O[C@H]2C[C@H](N3C[C@@H](CO)O[C@@H](OC)C3)[C@H](O)[C@H](C)O2)c2c(O)c3c(c(O)c2[C@H]1C(=O)OC)C(=O)c1c(O)ccc(O)c1C3=O [IX, 7-0-(3′-(6˝(S)-Hydroxymethyl-2˝(R)-methoxy-4˝-morpholinyl)-2′,3′,6′-tri-desoxy-alpha-L-lyxohexopyranosyl)-epsilon-isorhodomycinon] | 1 (≈ 1.42 µM) | 0.12 (≈ 0.171 µM) | – | – | – | –
4 | CC[C@@]1(O)C[C@H](O[C@H]2C[C@H](N3C[C@@H](CO)O[C@@H](OC)C3)[C@H](O)[C@H](C)O2)c2c(O)c3c(c(O)c2[C@H]1O)C(=O)c1cccc(O)c1C3=O [XVII, 7-0-(3′-(6˝(S)-Hydroxymethyl-2˝(R)-methoxy-4˝-morpholinyl)-2′,3′,6′-tri-desoxy-alpha-L-lyxohexopyranosyl)-ß-rhodomycinon] | 1 (≈ 1.55 µM) | 0.55 (≈ 0.852 µM) | – | – | – | –
5 | 7-0-(3′-(3˝ oder 5˝-Cyano-6˝(S)-hydroxymethyl-2˝(S)-methoxy-4˝-morpholinyl)-2′,3′,6′-tri-desoxy-alpha-L-lyxohexopyranosyl)-epsilon-isorhodomycinon [XXIII] | – | – | – | – | – | IC₅₀ MTT-ASSAY HT 29 [2]: 0.0031 µg/mL; IC₅₀ STEM CELL ASSAY 1 h exp. L1210 ([1]; 1 h incubation at 37° C): 0.027 µg/mL; IC₅₀ MTT-ASSAY L1210 [3]: 0.0009 µg/mL; IC₅₀ MTT-ASSAY A 549 [4]: 0.0021 µg/mL
6 | CC[C@@]1(O)C[C@H](O[C@H]2C[C@H](N3C[C@@H](CO)O[C@H](OC)C3)[C@@H](O)[C@H](C)O2)c2c(O)c3c(c(O)c2[C@H]1C(=O)OC)C(=O)c1c(O)ccc(O)c1C3=O [XV, 7-0-(3′-(6˝(S)-Hydroxymethyl-2˝(S)-methoxy-4˝-morpholinyl)-2′,3′,6′-tri-desoxy-alpha-L-arabinohexopyranosyl)epsilon-isorhodomycinon] | 0.32 (≈ 0.455 µM) | 0.078 (≈ 0.111 µM) | 0.03 (≈ 0.0426 µM) | 0.035 (≈ 0.0497 µM) | 0.038 (≈ 0.054 µM) | –
7 | CC[C@@]1(O)C[C@H](O[C@H]2C[C@H](N3C[C@@H](OC)O[C@@H](C)C3)[C@H](O)[C@H](C)O2)c2c(O)c3c(c(O)c2[C@H]1O)C(=O)c1cccc(O)c1C3=O [XIX, 7-0-(3′-(6˝(S)-methyl-2˝(S)-methoxy-4˝-morpholinyl)-2′, 3′,6′-tridesoxy-alpha-L-lyxohexopyranosyl)-ß-rhodomycinon] | 0.095 (≈ 0.151 µM) | 0.021 (≈ 0.0334 µM) | – | – | – | –
8 | CC[C@@]1(O)C[C@H](O[C@H]2C[C@H](N3C[C@H]4CO[C@@H](C3)O4)[C@H](O)[C@H](C)O2)c2c(O)c3c(c(O)c2[C@H]1O)C(=O)c1cccc(O)c1C3=O [XX, 7-0-(3′-(2˝,6˝-Epoximethano-4˝-morpholinyl)-2′,3′,6′-tridesoxy-alpha-L-lyxohexopyranosyl)-ß-rhodomycinon] | 0.12 (≈ 0.196 µM) | – | 0.036 (≈ 0.0587 µM) | 0.008 (≈ 0.013 µM) | 0.014 (≈ 0.0228 µM) | –
9 | CCC1(O)CC(O[C@H]2C[C@H](N3CCOCC3)[C@H](O)[C@H](C)O2)c2c(O)c3c(c(O)c2C1C(=O)OC)C(=O)c1c(O)ccc(O)c1C3=O (stereo partly drawn) [Verbindung 26, 7-0-(3′-(4˝-Morpholinyl)-2′,3′,6′-tridesoxy-alpha-L-lyxohexopyranosyl)-epsilon-isorhodomycinon] | – | – | – | – | – | Wirkung in dem L1210 Tumormodell in vivo [5]: nur eine marginale Wirkung
10 | 7-0-(3′-(3˝-oder 5˝-Cyano-6˝(S)-hydroxymethyl-2˝(S)-methoxy-4˝-morpholinyl)-2′,3′,6′-tri-desoxy-alpha-L-arabinohexopyranosyl)-epsilon-isorhodomycinon [XXIV] | – | – | – | – | – | IC₅₀ MTT-ASSAY HT 29 [2]: 0.017 µg/mL; IC₅₀ STEM CELL ASSAY 1 h exp. L1210 ([1]; 1 h incubation at 37° C): 0.034 µg/mL; IC₅₀ MTT-ASSAY L1210 [3]: 0.0071 µg/mL; IC₅₀ MTT-ASSAY A 549 [4]: 0.011 µg/mL
11 | CC[C@@]1(O)C[C@H](O[C@H]2C[C@H](N3C[C@@H](CO)O[C@H](OC)C3)[C@H](O)[C@H](C)O2)c2c(O)c3c(c(O)c2[C@H]1C(=O)OC)C(=O)c1c(O)ccc(O)c1C3=O [VIII, 7-0-(3′-(6˝(s)-Hydroxymethyl-2˝(s)-methoxy-4˝-morpholinyl)-2′,3′,6′-tri-desoxy-alpha-L-lyxohexopyranosyl)-epsilon-isorhodomycinon] | 0.95 (≈ 1.35 µM) | 0.029 (≈ 0.0412 µM) | 0.035 (≈ 0.0497 µM) | 0.009 (≈ 0.0128 µM) | 0.038 (≈ 0.054 µM) | Wirkung in dem L1210 Tumormodell in vivo [5]: kurativ wirksam
12 | CC[C@@]1(O)C[C@H](O[C@H]2C[C@H](N3C[C@@H](CO)O[C@H](OC)C3)[C@H](O)[C@H](C)O2)c2c(O)c3c(c(O)c2[C@H]1O)C(=O)c1cccc(O)c1C3=O [XVI, 7-0-(3′-(6˝(S)-Hydroxymethyl-2˝(S)-methoxy-4˝-morpholinyl)-2′,3′,6′-tri-desoxy-alpha-L-lyxohexopyranosyl)-ß-rhodomycinon] | 0.15 (≈ 0.232 µM) | 0.026 (≈ 0.0403 µM) | 0.11 (≈ 0.17 µM) | 0.036 (≈ 0.0558 µM) | 0.046 (≈ 0.0712 µM) | –
